# Results: PubChem BioAssay (NCI)
#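 96-well plates; 48 h exposure; 5 concentrations. Endpoints by linear interpolation between flanking doses. Not reached: highest tested concentration assigned. TGI marks complete inhibition of growth.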
# Assays:
# Assay in all cases: inhibition of tumour cell growth, NCI panel, 48 h
# UACC-257 melanoma = test system: UACC-257 melanoma
# MALME-3M melanoma = test system: MALME-3M melanoma
# HCC-2998 colon = test system: HCC-2998 colon
# K-562 leukemia = test system: K-562 leukemia
# COLO 205 colon = test system: COLO 205 colon
# OVCAR-4 ovarian = test system: OVCAR-4 ovarian
# SR leukemia = test system: SR leukemia
# 786-0 renal = test system: 786-0 renal
# HOP-92 NSCLC = test system: HOP-92 NSCLC
# SF-295 CNS = test system: SF-295 CNS
# MOLT-4 leukemia = test system: MOLT-4 leukemia
# OVCAR-8 ovarian = test system: OVCAR-8 ovarian
# U251 CNS = test system: U251 CNS
# MCF7 breast = test system: MCF7 breast
# HS 578T breast = test system: HS 578T breast
# TK-10 renal = test system: TK-10 renal
# MDA-MB-231 breast = test system: MDA-MB-231 breast
# SK-MEL-2 melanoma = test system: SK-MEL-2 melanoma
# T-47D breast = test system: T-47D breast
# DU-145 prostate = test system: DU-145 prostate
Compound,TGI (UACC-257 melanoma) [µM],TGI (MALME-3M melanoma) [µM],TGI (HCC-2998 colon) [µM],TGI (K-562 leukemia) [µM],TGI (COLO 205 colon) [µM],TGI (OVCAR-4 ovarian) [µM],TGI (SR leukemia) [µM],TGI (786-0 renal) [µM],TGI (HOP-92 NSCLC) [µM],TGI (SF-295 CNS) [µM],TGI (MOLT-4 leukemia) [µM],TGI (OVCAR-8 ovarian) [µM],TGI (U251 CNS) [µM],TGI (MCF7 breast) [µM],TGI (HS 578T breast) [µM],TGI (TK-10 renal) [µM],TGI (MDA-MB-231 breast) [µM],TGI (SK-MEL-2 melanoma) [µM],TGI (T-47D breast) [µM],TGI (DU-145 prostate) [µM]
CN(C)/N=C(/c1nc2ccc([N+](=O)[O-])cc2[nH]c1=O)C(O)c1ccco1 (configuration not stated),> 100,> 100,> 100,> 100,> 100,> 100,> 100,> 100,> 100,> 100,> 100,> 100,> 100,–,–,–,–,–,–,–
CCN(CC)CCN1C(=O)c2c(c(-c3ccccc3)c3ccccc3c2-c2ccccc2)C1=O,> 100,> 100,> 100,> 100,> 100,> 100,–,> 100,86.9,> 100,> 100,> 100,> 100,> 100,> 100,> 100,> 100,> 100,–,–
CCOC(=O)c1c(C)cc(=O)n2c1[nH]c1ccccc12,> 100,> 100,> 100,> 100,> 100,–,–,> 100,> 100,> 100,> 100,> 100,> 100,> 100,–,> 100,> 100,> 100,> 100,> 100
O=c1[nH]c2cc([N+](=O)[O-])ccc2nc1/C(=N/Nc1ccccc1)C(O)c1ccc(C(O)/C(=N\Nc2ccccc2)c2cnc3cc([N+](=O)[O-])ccc3n2)cc1 (configuration not stated),> 100,> 100,87.1,> 100,> 100,> 100,> 100,> 100,> 100,> 100,> 100,> 100,–,–,–,> 100,–,> 100,–,–
Cc1ccc(C(=O)Nc2ccc(S(=O)(=O)O)c3cc(S(=O)(=O)O)cc(S(=O)(=O)O)c23)cc1NC(=S)Nc1cc(C(=O)Nc2ccc(S(=O)(=O)O)c3cc(S(=O)(=O)O)cc(S(=O)(=O)O)c23)ccc1C,> 75,> 75,> 75,> 75,–,> 75,> 75,> 75,–,–,> 75,> 75,> 75,> 75,–,> 75,> 75,> 75,–,> 75
Cc1c2c(n(CCc3ccccc3)c1C)N(C)N=C(C#N)S2(=O)=O,> 100,–,> 100,–,–,> 100,> 100,> 100,–,> 100,> 100,> 100,> 100,> 100,–,> 100,> 100,> 100,> 100,> 100
O=C(Cc1csc(N=Nc2c(O)[nH]c3ccccc23)n1)Nc1ccccc1,87.7,–,94.3,–,> 100,> 100,–,34.3,> 100,> 100,> 100,65.8,55.2,> 100,–,> 100,> 100,> 100,> 100,91.5
